Test results published in publication PMC9090415, “Discovery of small molecule inhibitors of Plasmodium falciparum apicoplast DNA polymerase” (Journal of Enzyme Inhibition and Medicinal Chemistry, 2022).

Target: P. falciparum apicoplast DNA polymerase (Pf-apPOL) (Plasmodium falciparum, UniProt Q8ILY1)
Test: Fluorescence-based high-throughput DNA polymerase assay (molecular beacon), primary screen and dose-response
Format: biochemical
Settings: for DNA Pol: 90 min, 10 µM; for % inhibition Apo pol 10' 2.5 / % inhibition Apo pol 10' 5 / % inhibition Apo pol 10' 10 / % inhibition Apo pol 10' 20 / % inhibition Apo pol 10' 40 / % inhibition Apo pol 10' 80: read at 10'; for % inhibition Apol 90' 2.5 / % inhibition Apol 90' 5 / % inhibition Apol 90' 10 / % inhibition Apol 90' 20 / % inhibition Apol 90' 40 / % inhibition Apol 90' 80 / % inhibition ApPOL 90' 2.5 / % inhibition ApPOL 90' 5 / % inhibition ApPOL 90' 10 / % inhibition ApPOL 90' 20 / % inhibition ApPOL 90' 40 / % inhibition ApPOL 90' 80: read at 90'; for % inhibition apPOL 180' 2.5 / % inhibition apPOL 180' 5 / % inhibition apPOL 180' 10 / % inhibition apPOL 180' 20 / % inhibition apPOL 180' 40 / % inhibition apPOL 180' 80: read at 180'; for % inhibition Apo pol 5' 2.5 / % inhibition Apo pol 5' 5 / % inhibition Apo pol 5' 10 / % inhibition Apo pol 5' 20 / % inhibition Apo pol 5' 40 / % inhibition Apo pol 5' 80: read at 5'; for % inhibition Apol 40' 2.5 / % inhibition Apol 40' 5 / % inhibition Apol 40' 10 / % inhibition Apol 40' 20 / % inhibition Apol 40' 40 / % inhibition Apol 40' 80: read at 40'
Summary of the method: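 Single-point screening used 10 µM compound with 20 nM polymerase, 20 nM hairpin substrate and 6 µM dNTPs for 90 min at 25 °C. Confirmatory titrations (2.5–80 µM) followed fluorescence at three times, and IC50 was derived from a fit including a cooperativity term n.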

[1] = 186 hits, DNA Pol (screen value), unit not given
[2] = 'DNA Pol' (screen value), unit not given

Sequence of P. falciparum apicoplast DNA polymerase (Pf-apPOL) (Q8ILY1 entry or part of it): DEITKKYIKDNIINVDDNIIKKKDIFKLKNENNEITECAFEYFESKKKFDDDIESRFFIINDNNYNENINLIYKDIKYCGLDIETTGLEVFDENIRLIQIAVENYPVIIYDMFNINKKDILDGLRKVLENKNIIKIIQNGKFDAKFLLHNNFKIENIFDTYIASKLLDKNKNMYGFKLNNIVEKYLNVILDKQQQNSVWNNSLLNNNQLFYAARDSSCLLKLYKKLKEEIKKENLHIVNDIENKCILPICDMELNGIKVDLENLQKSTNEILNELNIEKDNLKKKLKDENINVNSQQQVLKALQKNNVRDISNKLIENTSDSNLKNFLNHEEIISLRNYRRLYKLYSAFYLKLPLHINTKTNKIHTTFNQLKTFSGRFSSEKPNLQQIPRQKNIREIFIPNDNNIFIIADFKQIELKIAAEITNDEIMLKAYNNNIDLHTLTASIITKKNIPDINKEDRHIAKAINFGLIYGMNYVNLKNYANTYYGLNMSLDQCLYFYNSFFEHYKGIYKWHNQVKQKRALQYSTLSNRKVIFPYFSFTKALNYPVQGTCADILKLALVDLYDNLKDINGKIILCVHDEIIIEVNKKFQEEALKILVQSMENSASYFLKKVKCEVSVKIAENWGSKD

O=C(CCc1csc(NC(=O)Nc2ccccc2)n1)Nc1nc2ccccc2s1 [KU0177354]
DNA Pol [1]: 40
DNA Pol [2]: 40
% inhibition Apo pol 10' 2.5 (DRC-1, concentration 2.5): 5.576%
% inhibition Apo pol 10' 5 (DRC-1, concentration 5): 8.503%
% inhibition Apo pol 10' 10 (DRC-1, concentration 10): 43.0217%
% inhibition Apo pol 10' 20 (DRC-1, concentration 20): 76.9078%
% inhibition Apo pol 10' 40 (DRC-1, concentration 40): 79.3304%
% inhibition Apo pol 10' 80 (DRC-1, concentration 80): 82.5837%
% inhibition Apol 90' 2.5 (DRC-1, concentration 2.5): -1.376%
% inhibition Apol 90' 5 (DRC-1, concentration 5): -0.284%
% inhibition Apol 90' 10 (DRC-1, concentration 10): 25.6988%
% inhibition Apol 90' 20 (DRC-1, concentration 20): 59.1025%
% inhibition Apol 90' 40 (DRC-1, concentration 40): 63.1922%
% inhibition Apol 90' 80 (DRC-1, concentration 80): 69.3927%
% inhibition apPOL 180' 2.5 (DRC-1, concentration 2.5): -6.865%
% inhibition apPOL 180' 5 (DRC-1, concentration 5): -6.2%
% inhibition apPOL 180' 10 (DRC-1, concentration 10): 11.7395%
% inhibition apPOL 180' 20 (DRC-1, concentration 20): 39.4261%
% inhibition apPOL 180' 40 (DRC-1, concentration 40): 45.9927%
% inhibition apPOL 180' 80 (DRC-1, concentration 80): 55.8861%
% inhibition Apo pol 5' (DRC-2, concentration 5): -6%
% inhibition Apo pol 5' (DRC-2, concentration 20): 37%
% inhibition Apol 40' (DRC-2, concentration 5): -6%
% inhibition Apol 40' (DRC-2, concentration 10): 46%
% inhibition Apol 40' (DRC-2, concentration 20): 49%
% inhibition Apol 40' (DRC-2, concentration 40): 53%
% inhibition Apol 40' (DRC-2, concentration 80): 49%
% inhibition ApPOL 90' (DRC-2, concentration 40): 53%
% inhibition apPOL 180' (DRC-2, concentration 20): 37%
% inhibition apPOL 180' (DRC-2, concentration 80): 46%
% inhibition Apo pol 5' 2.5 (DRC-2, concentration 2.5): -3.16%
% inhibition Apo pol 5' 5 (DRC-2, concentration 5): -6%
% inhibition Apo pol 5' 10 (DRC-2, concentration 10): 38%
% inhibition Apo pol 5' 20 (DRC-2, concentration 20): 37%
% inhibition Apo pol 5' 40 (DRC-2, concentration 40): 34%
% inhibition Apo pol 5' 80 (DRC-2, concentration 80): 29%
% inhibition Apol 40' 2.5 (DRC-2, concentration 2.5): -3.41%
% inhibition Apol 40' 5 (DRC-2, concentration 5): -6%
% inhibition Apol 40' 10 (DRC-2, concentration 10): 46%
% inhibition Apol 40' 20 (DRC-2, concentration 20): 49%
% inhibition Apol 40' 40 (DRC-2, concentration 40): 53%
% inhibition Apol 40' 80 (DRC-2, concentration 80): 49%
% inhibition ApPOL 90' 2.5 (DRC-2, concentration 2.5): -4%
% inhibition ApPOL 90' 5 (DRC-2, concentration 5): -7%
% inhibition ApPOL 90' 10 (DRC-2, concentration 10): 43%
% inhibition ApPOL 90' 20 (DRC-2, concentration 20): 48%
% inhibition ApPOL 90' 40 (DRC-2, concentration 40): 53%
% inhibition ApPOL 90' 80 (DRC-2, concentration 80): 51%
% inhibition apPOL 180' 2.5 (DRC-2, concentration 2.5): -8%
% inhibition apPOL 180' 5 (DRC-2, concentration 5): -12%
% inhibition apPOL 180' 10 (DRC-2, concentration 10): 32%
% inhibition apPOL 180' 20 (DRC-2, concentration 20): 37%
% inhibition apPOL 180' 40 (DRC-2, concentration 40): 47%
% inhibition apPOL 180' 80 (DRC-2, concentration 80): 46%

N#Cc1c(O)nc(N2CCCCC2)nc1-c1ccc2c(c1)OCO2 [KU0083146]
DNA Pol [1]: 49
DNA Pol [2]: 49
% inhibition Apo pol 10' 2.5 (DRC-1, concentration 2.5): 13.1271%
% inhibition Apo pol 10' 5 (DRC-1, concentration 5): 26.6749%
% inhibition Apo pol 10' 10 (DRC-1, concentration 10): 53.7038%
% inhibition Apo pol 10' 20 (DRC-1, concentration 20): 55.5357%
% inhibition Apo pol 10' 40 (DRC-1, concentration 40): 66.277%
% inhibition Apo pol 10' 80 (DRC-1, concentration 80): 78.8965%
% inhibition Apol 90' 2.5 (DRC-1, concentration 2.5): 5.9065%
% inhibition Apol 90' 5 (DRC-1, concentration 5): 16.8272%
% inhibition Apol 90' 10 (DRC-1, concentration 10): 42.1383%
% inhibition Apol 90' 20 (DRC-1, concentration 20): 45.0693%
% inhibition Apol 90' 40 (DRC-1, concentration 40): 57.8585%
% inhibition Apol 90' 80 (DRC-1, concentration 80): 71.163%
% inhibition apPOL 180' 2.5 (DRC-1, concentration 2.5): -1.148%
% inhibition apPOL 180' 5 (DRC-1, concentration 5): 6.188%
% inhibition apPOL 180' 10 (DRC-1, concentration 10): 30.2008%
% inhibition apPOL 180' 20 (DRC-1, concentration 20): 34.0367%
% inhibition apPOL 180' 40 (DRC-1, concentration 40): 46.9072%
% inhibition apPOL 180' 80 (DRC-1, concentration 80): 62.3261%
% inhibition Apo pol 5' (DRC-2, concentration 2.5): 13%
% inhibition Apo pol 5' (DRC-2, concentration 10): 33%
% inhibition Apo pol 5' (DRC-2, concentration 40): 53%
% inhibition Apol 40' (DRC-2, concentration 2.5): 13%
% inhibition Apol 40' (DRC-2, concentration 10): 33%
% inhibition apPOL 180' (DRC-2, concentration 40): 53%
% inhibition Apo pol 5' 2.5 (DRC-2, concentration 2.5): 13%
% inhibition Apo pol 5' 5 (DRC-2, concentration 5): 27%
% inhibition Apo pol 5' 10 (DRC-2, concentration 10): 33%
% inhibition Apo pol 5' 20 (DRC-2, concentration 20): 44%
% inhibition Apo pol 5' 40 (DRC-2, concentration 40): 53%
% inhibition Apo pol 5' 80 (DRC-2, concentration 80): 57%
% inhibition Apol 40' 2.5 (DRC-2, concentration 2.5): 13%
% inhibition Apol 40' 5 (DRC-2, concentration 5): 28%
% inhibition Apol 40' 10 (DRC-2, concentration 10): 33%
% inhibition Apol 40' 20 (DRC-2, concentration 20): 49%
% inhibition Apol 40' 40 (DRC-2, concentration 40): 60%
% inhibition Apol 40' 80 (DRC-2, concentration 80): 65%
% inhibition ApPOL 90' 2.5 (DRC-2, concentration 2.5): 11%
% inhibition ApPOL 90' 5 (DRC-2, concentration 5): 26%
% inhibition ApPOL 90' 10 (DRC-2, concentration 10): 31%
% inhibition ApPOL 90' 20 (DRC-2, concentration 20): 47%
% inhibition ApPOL 90' 40 (DRC-2, concentration 40): 59%
% inhibition ApPOL 90' 80 (DRC-2, concentration 80): 66%
% inhibition apPOL 180' 2.5 (DRC-2, concentration 2.5): 5.4%
% inhibition apPOL 180' 5 (DRC-2, concentration 5): 17%
% inhibition apPOL 180' 10 (DRC-2, concentration 10): 23%
% inhibition apPOL 180' 20 (DRC-2, concentration 20): 40%
% inhibition apPOL 180' 40 (DRC-2, concentration 40): 53%
% inhibition apPOL 180' 80 (DRC-2, concentration 80): 61%

O=C(Nc1ccc2c(c1)Cc1cc(NC(=O)c3ccco3)ccc1-2)c1ccco1 [KU0038977]
DNA Pol ("DNA Pol" of the 186 hits list (screen value)): 27
% inhibition Apo pol 10' (DRC-1, concentration 2.5): -0.5837%
% inhibition Apo pol 10' (DRC-1, concentration 5): 5.785%
% inhibition Apo pol 10' (DRC-1, concentration 10): 28.4085%
% inhibition Apo pol 10' (DRC-1, concentration 20): 37.8617%
% inhibition Apo pol 10' (DRC-1, concentration 40): 75.7214%
% inhibition Apo pol 10' (DRC-1, concentration 80): 91.1334%
% inhibition Apol 90' (DRC-1, concentration 2.5): -0.5506%
% inhibition Apol 90' (DRC-1, concentration 5): 1.199%
% inhibition Apol 90' (DRC-1, concentration 10): 17.4686%
% inhibition Apol 90' (DRC-1, concentration 20): 25.9%
% inhibition Apol 90' (DRC-1, concentration 40): 60.9972%
% inhibition Apol 90' (DRC-1, concentration 80): 80.3159%
% inhibition apPOL 180' (DRC-1, concentration 2.5): -0.3262%
% inhibition apPOL 180' (DRC-1, concentration 5): 0.08289%
% inhibition apPOL 180' (DRC-1, concentration 10): 10.649%
% inhibition apPOL 180' (DRC-1, concentration 20): 16.9681%
% inhibition apPOL 180' (DRC-1, concentration 40): 47.3942%
% inhibition apPOL 180' (DRC-1, concentration 80): 72.1517%
% inhibition Apo pol 5' (DRC-2, concentration 2.5): 21%
% inhibition Apo pol 5' (DRC-2, concentration 5): 10%
% inhibition Apo pol 5' (DRC-2, concentration 10): 35%
% inhibition Apo pol 5' (DRC-2, concentration 20): 42%
% inhibition Apo pol 5' (DRC-2, concentration 40): 53%
% inhibition Apo pol 5' (DRC-2, concentration 80): 27%
% inhibition Apol 40' (DRC-2, concentration 2.5): 30%
% inhibition Apol 40' (DRC-2, concentration 5): 10%
% inhibition Apol 40' (DRC-2, concentration 10): 40%
% inhibition Apol 40' (DRC-2, concentration 20): 52%
% inhibition Apol 40' (DRC-2, concentration 40): 69%
% inhibition Apol 40' (DRC-2, concentration 80): 58%
% inhibition ApPOL 90' (DRC-2, concentration 2.5): 29%
% inhibition ApPOL 90' (DRC-2, concentration 5): 6.46%
% inhibition ApPOL 90' (DRC-2, concentration 10): 35%
% inhibition ApPOL 90' (DRC-2, concentration 20): 50%
% inhibition ApPOL 90' (DRC-2, concentration 40): 71%
% inhibition ApPOL 90' (DRC-2, concentration 80): 65%
% inhibition apPOL 180' (DRC-2, concentration 2.5): 20%
% inhibition apPOL 180' (DRC-2, concentration 5): -3.38%
% inhibition apPOL 180' (DRC-2, concentration 10): 23%
% inhibition apPOL 180' (DRC-2, concentration 20): 40%
% inhibition apPOL 180' (DRC-2, concentration 40): 68%
% inhibition apPOL 180' (DRC-2, concentration 80): 69%
DNA Pol (primary screen value, DNA Pol): 27
